Source: PubChem BioAssay AID1963976 (Molecular Pharmacology Branch, DTP, NCI, 2024)
pIC50: −log10 of the molar value.

Tested on: 435261-313-R-J1-PDC tumor spheroid viability
Assay: Anticancer human tumor 435261-313-R-J1-PDC patient-derived colon adenocarcinoma cell line growth inhibition [PI3K]
Settings: spheroids with HUVEC and MSC; for pIC50: curve of first compound; for viability, T/C: stronger effect = lower value; active means viability on the fitted dose curve at most 10% of control; inactive means the rest
Description: Combinatorial screen of targeted agents with the PI3K inhibitors inavolisib, alpelisib, duvelisib, and copanlisib in multi-cell type tumor spheroids
A high-throughput screen of multi-cell type tumor spheroids was designed to identify active combinations of targeted small molecules and PI3K pathway inhibitors. Complex spheroids include a stromal component modeled by human endothelial cells (HUVEC) and fibroblasts modeled by human mesenchymal stem cells (MSCs). The concentration ranges selected for each drug and investigational agent were based upon clinically achievable concentrations if the clinical Cmax of the agent was known.
Compounds. The drugs and investigational agents: inavolisib (NSC800729), alpelisib (NSC765974), duvelisib (NSC772469), copanlisib (NSC816437), ipatasertib (NSC767898), afuresertib (NSC778305), talazoparib (NSC767125), sapanisertib (NSC764658), selumetinib (NSC741078), tovorafenib (DAY101, NSC766906), vemurafenib (NSC761431), ravoxertinib (NSC781343), sotorasib (NSC818433), MRTX1133 (NSC 836407), abemaciclib (NSC 768073), palbociclib (NSC758247), venetoclax (NSC 766270), SY5609 (NSC837396), enzalutamide (NSC755605), and darolutamide (NSC825331), were obtained from the National Cancer Institute (NCI) Developmental Therapeutics Program Chemical Repository. The FDA-approved anticancer drug set is available from the NCI Developmental Therapeutics Program. […] The stock solutions were prepared in dimethyl sulfoxide (DMSO, Sigma-Aldrich, St. Louis, MO, cat. D2650) at 800-fold the tested concentration and stored at -70 degrees C prior to their use. All drugs and investigational agents were tested over a range starting from a high concentration at or near the clinical Cmax and decreasing in half-log increments. If the clinical Cmax for an agent had not been determined, the highest concentration tested was 10 microM.
Cell Culture. All cells were maintained in an incubator at 37 degrees C and 5% CO2 with 95% humidity. The PDC lines were cultured according to standard operating procedures established by the NCI PDMR (https://pdmr.cancer.gov/sops/default.htm). All PDCs were thawed and cultured in Matrigel-coated flasks prepared with a working solution of 1X Ham's F-12 nutrient mix, without supplementation (Invitrogen, Waltham, MA, cat. 11765054), 100 U/mL penicillin-streptomycin (Invitrogen, cat. 15140122), and 2.5% Matrigel (Corning Inc., Corning, NY, cat. 354248) for the first three passages. The 354836-022-R-J1-PDC, 475296-252-R-J1-PDC, and 997726-040-R-J2-PDC lines were cultured in 6A media, which includes advanced DMEM/F-12 (Thermo Fisher Scientific, cat. 12634028), 10 mM HEPES (Thermo Fisher Scientific, cat. 15630080), 1X GlutaMAX supplement (Thermo Fisher Scientific, cat. 35050061), 0.1 mg/mL primocin (InvivoGen, San Diego, CA, cat. ant-pm-2), 10% defined fetal bovine serum, heat inactivated (HyClone Laboratories Inc., Logan, UT, cat. SH30070.03HI), 50% L-WRN conditioned media (ATCC, cat. CRL-3276), 1.25 mM N-Acetyl-L-cysteine (Sigma-Aldrich, cat. A9165), 10 mM nicotinamide (Sigma-Aldrich, cat. N0636), 1X B-27 supplement (Thermo Fisher Scientific, cat. 17504044), 1X N-2 supplement (Thermo Fisher Scientific, cat. 17502048), and 10 microM Y-27632 dihydrochloride (Tocris Bioscience, Bristol, United Kingdom, cat. 1254). The 624824-186-R-J2-PDC line was cultured in 6C/Colon 1B media, which includes all 6A media components plus 50 ng/mL human EGF recombinant protein (Thermo Fisher Scientific, cat. PHG0311). […]
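Further: spheroids exposed to compounds for 7 days.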

Cn1cnc2c(F)c(Nc3ccc(Br)cc3Cl)c(C(=O)NOCCO)cc21 + CC(Nc1ncnc2nc[nH]c12)c1cc2cccc(Cl)c2c(=O)n1-c1ccccc1
inactive: viability, T/C (second compound 0.0316 µM, first compound 0.00949 µM) 60.3% | viability, T/C (second compound 0.0316 µM, first compound 0.03 µM) 35.7% | viability, T/C (second compound 0.0316 µM, first compound 0.0949 µM) 26.9% | viability, T/C (second compound 0.0316 µM, first compound 0.3 µM) 25.1% | viability, T/C (second compound 0.0316 µM, first compound 0.949 µM) 22.2% | viability, T/C (second compound 0.0316 µM, first compound 3 µM) 18.6% | viability, T/C (second compound 0.1 µM, first compound 0.00949 µM) 51.9% | viability, T/C (second compound 0.1 µM, first compound 0.03 µM) 34.6% | viability, T/C (second compound 0.1 µM, first compound 0.0949 µM) 23% | viability, T/C (second compound 0.1 µM, first compound 0.3 µM) 25% | viability, T/C (second compound 0.1 µM, first compound 0.949 µM) 21.7% | viability, T/C (second compound 0.1 µM, first compound 3 µM) 16.6% | viability, T/C (second compound 0.316 µM, first compound 0.00949 µM) 59.9% | viability, T/C (second compound 0.316 µM, first compound 0.03 µM) 38.6% | viability, T/C (second compound 0.316 µM, first compound 0.0949 µM) 25% | viability, T/C (second compound 0.316 µM, first compound 0.3 µM) 22.7% | viability, T/C (second compound 0.316 µM, first compound 0.949 µM) 21.4% | viability, T/C (second compound 0.316 µM, first compound 3 µM) 13.9% | viability, T/C (second compound 1 µM, first compound 0.00949 µM) 43.4% | viability, T/C (second compound 1 µM, first compound 0.03 µM) 34.5% | viability, T/C (second compound 1 µM, first compound 0.0949 µM) 26.4% | viability, T/C (second compound 1 µM, first compound 0.3 µM) 22.2% | viability, T/C (second compound 1 µM, first compound 0.949 µM) 21% | viability, T/C (second compound 1 µM, first compound 3 µM) 12.1% | viability, T/C (second compound 3.16 µM, first compound 0.00949 µM) 38.8% | viability, T/C (second compound 3.16 µM, first compound 0.03 µM) 29.6% | viability, T/C (second compound 3.16 µM, first compound 0.0949 µM) 21% | viability, T/C (second compound 3.16 µM, first compound 0.3 µM) 20.6% | viability, T/C (second compound 3.16 µM, first compound 0.949 µM) 19.5% | viability, T/C (second compound 3.16 µM, first compound 3 µM) 12.3% | viability, T/C (second compound 10 µM, first compound 0.00949 µM) 22.3% | viability, T/C (second compound 10 µM, first compound 0.03 µM) 21.1% | viability, T/C (second compound 10 µM, first compound 0.0949 µM) 19.6% | viability, T/C (second compound 10 µM, first compound 0.3 µM) 16.3% | viability, T/C (second compound 10 µM, first compound 0.949 µM) 15.9% | viability, T/C (second compound 10 µM, first compound 3 µM) 9.75%
> 8.02: pIC50 (second compound 1 µM) | pIC50 (second compound 3.16 µM) | pIC50 (second compound 10 µM)
7.81: pIC50 (second compound 0.0316 µM)
7.97: pIC50 (second compound 0.1 µM)
7.80: pIC50 (second compound 0.316 µM)
